For assay [1], the target named is T1, Lysine-specific demethylase 4D (Homo sapiens, UniProt Q6B0I6).
T1 sequence (Q6B0I6 whole entry): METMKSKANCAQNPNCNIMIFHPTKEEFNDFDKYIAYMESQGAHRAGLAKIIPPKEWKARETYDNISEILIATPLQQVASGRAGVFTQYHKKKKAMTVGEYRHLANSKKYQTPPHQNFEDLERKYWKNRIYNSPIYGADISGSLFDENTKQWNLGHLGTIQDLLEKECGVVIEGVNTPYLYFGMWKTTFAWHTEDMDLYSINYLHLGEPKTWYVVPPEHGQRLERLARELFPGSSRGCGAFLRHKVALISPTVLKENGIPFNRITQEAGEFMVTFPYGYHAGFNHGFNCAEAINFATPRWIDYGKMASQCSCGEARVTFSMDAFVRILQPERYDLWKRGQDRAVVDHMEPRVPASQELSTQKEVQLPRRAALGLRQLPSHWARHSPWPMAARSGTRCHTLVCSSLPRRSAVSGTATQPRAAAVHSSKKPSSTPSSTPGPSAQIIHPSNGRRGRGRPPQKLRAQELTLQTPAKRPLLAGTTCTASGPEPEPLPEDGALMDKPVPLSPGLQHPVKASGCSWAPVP
Put plainly: Inhibition of KDM4D (unknown origin).

In assay [2] the target is T2, Lysine-specific demethylase 4D (Homo sapiens) (UniProt Q6B0I6).
T2 sequence (whole entry): T1 sequence (Q6B0I6 whole entry)
Put plainly: Inhibition of human KDM4D expressed in Escherichia coli BL21 (DE3) at 1 uM using biotinylated H3-derived peptide and 2-OG as substrate preincubated for 15 mins followed by substrate addition and measured after 1 hr by AlphaLISA assay. To be noted: time 75.0 min.

Assay [3] has as its system HCT-116. The experiment in a line: Antiproliferative activity against human HCT-116 cells assessed as reduction in cell viability measured after 72 hrs by MTT assay. Format: functional, cell-based. The following applies: HCT-116, 72 h.
Assay [4] concerns SW-620. Put plainly: Antiproliferative activity against human SW-620 cells assessed as reduction in cell viability measured after 72 hrs by MTT assay. To be noted: SW-620, 72 h. Type of assay: functional, cell-based.
For assay [5], the system named is SW480. The experiment in a line: Antiproliferative activity against human SW480 cells assessed as reduction in cell viability measured after 72 hrs by MTT assay. Format: functional, cell-based. To be noted: SW480, 72 h.
For the next assay, the system named is A549. The experiment in a line: Antiproliferative activity against human A549 cells assessed as reduction in cell viability measured after 72 hrs by MTT assay. Type of assay: functional, cell-based.
For a further assay, the system named is NCI-H1792. The experiment in a line: Antiproliferative activity against human NCI-H1792 cells assessed as reduction in cell viability measured after 72 hrs by MTT assay. Type of assay: functional, cell-based.
In another assay the test system is HepG2. The experiment in a line: Antiproliferative activity against human HepG2 cells assessed as reduction in cell viability measured after 72 hrs by MTT assay. Format: functional, cell-based.
A further assay concerns Huh-7. The experiment in a line: Antiproliferative activity against human Huh-7 cells assessed as reduction in cell viability measured after 72 hrs by MTT assay. Format: functional, cell-based.
The next assay relates to SMMC-7721. The experiment in a line: Antiproliferative activity against human SMMC-7721 cells assessed as reduction in cell viability measured after 72 hrs by MTT assay. Format: functional, cell-based.
The test system of another assay is DU-145. The experiment in a line: Antiproliferative activity against human DU-145 cells assessed as reduction in cell viability measured after 72 hrs by MTT assay. Format: functional, cell-based.
Another assay relates to FaDu. The experiment in a line: Antiproliferative activity against human FaDu cells assessed as reduction in cell viability measured after 72 hrs by MTT assay. Format: functional, cell-based.
For a further assay, the system named is HeLa. The experiment in a line: Antiproliferative activity against human HeLa cells assessed as reduction in cell viability measured after 72 hrs by MTT assay. Type of assay: functional, cell-based.
Assay [6] relates to HCT-116. Put plainly: Inhibition of colony formation in human HCT-116 cells incubated for 7 days by crystal violet staining based assay. Type of assay: functional, cell-based. To be noted: dose 2.5-10 µM, time 7.0 day.
The test system of assay [7] is SW-620. The experiment in a line: Inhibition of colony formation in human SW-620 cells incubated for 7 days by crystal violet staining based assay. Type of assay: functional, cell-based. To be noted: dose 2.5-10 µM, time 7.0 day.
Assay [8] has as its system SW480. Put plainly: Inhibition of colony formation in human SW480 cells incubated for 7 days by crystal violet staining based assay. To be noted: dose 2.5-10 µM, time 7.0 day. Type of assay: functional, cell-based.
Assay [9] deals with HCT-116. Put plainly: Inhibition of cell migration in human HCT-116 cells at 10 uM incubated for 36 hrs by wound healing assay. Type of assay: functional.
The test system of assay [10] is HCT-116. Put plainly: Inhibition of cell migration in human HCT-116 cells at 20 uM incubated for 36 hrs by wound healing assay. Format: functional.
Assay [11] concerns HCT-116. Put plainly: Inhibition of cell migration in human HCT-116 cells by crystal violet staining based transwell assay. To be noted: dose 2.5-10 µM. Type of assay: functional.
The target in assay [12] is T2, Lysine-specific demethylase 4D (Homo sapiens). The experiment in a line: Inhibition of GST-tagged KDM4D (unknown origin) expressed in Escherichia coli DH5alpha assessed as histone demethylation activity using H3K9me3 as substrate incubated for 4 hrs in presence of FLAG-histone H3 measured by Western blot analysis. To be noted: dose 2.5-20 µM.
For assay [13] the target is unchanged. Put plainly: Inhibition of KDM4D in human HCT-116 cells assessed as reduction in Gli1 protein expression incubated for 48 hrs measured by Western blot analysis. The following applies: dose 2.5-20 µM. Type of assay: cell-based.
Assay [14] has the same target. Put plainly: Inhibition of KDM4D in human HCT-116 cells assessed as reduction in beta-catenin protein expression incubated for 48 hrs measured by Western blot analysis. Format: cell-based. To be noted: dose 2.5-20 µM.
The target is the same in assay [15]. The experiment in a line: Inhibition of KDM4D in human HCT-116 cells assessed as reduction in c-myc protein expression incubated for 48 hrs measured by Western blot analysis. Format: cell-based. The following applies: dose 2.5-20 µM.
Assay [16] is described as follows: Inhibition of KDM7B (unknown origin) by AlphaLISA assay. More on the design: species or system Homo sapiens.
The subject of assay [17] is HCT-116. Put plainly: Inhibition of cell migration in human HCT-116 cells incubated for 12 to 36 hrs by wound healing assay. Type of assay: functional, cell-based. The following applies: dose 10-20 µM, time lower 12.0 hrs, time upper […].
Assay [18] relates to HCT-116. Put plainly: Inhibition of cell migration in human HCT-116 cells at 10 to 20 uM by wound healing assay. Format: functional, cell-based. The following applies: dose 10-20 µM, time lower 12.0 hrs, time upper […], TDE = time-dependent effect.
The subject of assay [19] is HCT-116. The experiment in a line: Downregulation of KDM4D expression in human HCT-116 cells at 2.5 to 20 uM incubated for 48 hrs measured by Western blot analysis. Format: functional, cell-based. The following applies: dose 2.5-20 µM.
Assay [20] addresses T1, Lysine-specific demethylase 4D. The experiment in a line: Inhibition of human KDM4D expressed in Escherichia coli BL21 (DE3) using biotinylated H3-derived peptide and 2-OG as substrate preincubated for 15 mins followed by substrate addition and measured after 1 hr by AlphaLISA assay.

Active and inactive are the calls of the source. The rule behind the calls is not given here.

As for `Clc1ccc(N/N=C(\c2ccccc2)c2ccccn2)nc1`, the half-maximal inhibitory concentration (IC50) in assay [1] turned out to be 290 nM.

For the compound `CC(C)(C)OC(=O)N[C@@H]1CCN(C(c2ccc(-c3ccncc3)cc2)c2cc3c(cc2O)OCO3)C1` (stereo partly specified), the inhibition in assay [2] is 99.5%; in the assay on HCT-116 [6], “Dose-Dependent Effect”; in the assay on SW-620 [7], “Dose-Dependent Effect”; in the assay with SW480 [8], “Dose-Dependent Effect”; with HCT-116 [11], “Dose-Dependent Effect”; in [12], “Dose-Dependent Effect”. In addition, the inhibition entry in assay [13] is “Dose-Dependent Effect”; in [14] it was “Dose-Dependent Effect”; in [15], “Dose-Dependent Effect”; with HCT-116 [17] it was “Dose-Dependent Effect”; with HCT-116 [18], “Tde”. The concentration for half-maximal inhibition (IC50) is 10.7 µM in the assay on HCT-116 [3], 19.2 µM in the assay with SW-620 [4], 10.7 µM in the assay on SW480 [5] and 82.7 µM in assay [16]. In addition, the result with A549, in the assay with NCI-H1792, in the assay with HepG2, in the assay on Huh-7, in the assay with SMMC-7721 and in the assay with DU-145 was Active. Further, the result in the assay with FaDu and in the assay with HeLa was Active. This compound registered an inhibition at 10 µM in the assay on HCT-116 [9] of 42.4%. In the assay with HCT-116 [10], the inhibition at 20 µM came out at 94.1%. The inhibition entry in the assay with HCT-116 [19] was “Active”.

The compound `CC(C)(C)OC(=O)N[C@@H]1CCN(C(c2cc3c(cc2O)OCO3)c2ccnc3ccccc23)C1` (stereo partly specified) came in with an inhibition in assay [2] of 99.5%. This compound returned a concentration for half-maximal inhibition (IC50) in assay [20] of 100 nM.

With `CC(C)C(=O)N[C@@H]1CCN(C(c2ccncc2)c2cc3c(cc2O)OCO3)C1` (stereo partly specified), in [2], the inhibition turned out to be 96.5%. In assay [20], this compound registered a 50% inhibitory concentration (IC50) of 220 nM.

For `CC(C)(C)OC(=O)N[C@@H]1CCN(C(c2cc3c(cc2O)OCO3)c2ccc(Cl)cc2F)C1` (stereo partly specified), the inhibition in assay [2] stood at 99.3%. Besides, the IC50 in assay [20] was 111 nM.

For the compound `COC(=O)c1cccc(C(c2cc3c(cc2O)OCO3)N2CC[C@@H](NC(=O)OC(C)(C)C)C2)c1` (stereo partly specified), in assay [2], the inhibition came to 98.3%. This compound also registered an IC50 in assay [20] of 499 nM.

`CC(C)(C)OC(=O)N[C@@H]1CCN(C(c2ccc(-c3ccccn3)cc2)c2cc3c(cc2O)OCO3)C1` (stereo partly specified) registered an inhibition in assay [2] of 99.8%. The compound also had an IC50 in [20] of 145 nM.

The compound `O=C(N[C@@H]1CCN(C(c2ccncc2)c2cc3c(cc2O)OCO3)C1)c1ccccc1F` (stereo partly specified) had an inhibition in assay [2] of 96.6%. The IC50 in [20] came out at 437 nM.

In assay [2], `CC(C)(C)OC(=O)N[C@@H]1CCN(C(c2cnccn2)c2cc3c(cc2O)OCO3)C1` (stereo partly specified) showed an inhibition of 99%. In [20], this compound returned a half-inhibitory concentration (IC50) of 552 nM.

The values above are taken from ChEMBL document CHEMBL4831501, “Discovery of a potent and selective inhibitor of histone lysine demethylase KDM4D” (Eur J Med Chem, 2021).
